From patent publication US5512561A, “Aryl substituted dibenzoxazepine compounds, pharmaceutical compositions and methods of use” (G. D. Searle & Co., priority 1995, dated 1996)
Structures can show the parent of a compound that is named as a salt.

Legend:
[1] = test system: prostaglandin E2 -induced contractions of segments of guinea pig ileum; test: Prostaglandin (PGE) Antagonism Assay in guinea pig ileum; format: cell-based; conditions: dose ratio of EC50 doses of prostaglandin E2; initial test compound concentration 3 micromolar; 37° C.
Protocol: In order to determine the effectiveness of several of the compounds of the present invention ("test compounds") as prostaglandin E2 antagonists,a prostaglandin antagonism assay was conducted, as described below, to determine the ability of these compounds to inhibit prostaglandin E2 -induced contractions of segments of guinea pig ileum. […] Male albino guinea pigs weighing 200 to 500 grams were sacrificed by cervical dislocation. The ilea were then quickly removed from the guinea pigs and placed in a modified Tyrode solution, a solution which is known to those skilled in the art, containing one-half of the usual amount of magnesium ions. Segments of ileum about 2 cm long were then cut and mounted in a 10-mL tissue bath containing the modified Tyrode solution. […] Data for a control prostaglandin E2 dose response curve plotting concentration of prostaglandin E2 versus the intensity of contractions, detected isotonically, was then obtained by experimentally adjusting the dose of the prostaglandin E2 being injected into the tissue bath, in a manner known by those of skill in the art. Solutions or suspensions containing an initial concentration (3 micromolar) of a test compound in modified Tyrode solution ("test solutions/suspensions") were then separately substituted for the control bath solution. Each test solution/suspension was then kept in constant contact with the ileum tissue, except for brief periods to drain the bath in preparation for rinsing with fresh test solution/suspension. A second prostaglandin E2 dose response curve was then generated for prostaglandin E2 in the presence of a test compound. A dose ratio of EC50 doses was then calculated from the results of each test in a manner known by those of skill in the art.

mice = test: Writhing Assay (PBQ-induced writhing, analgesia in mice); format: in vivo, mice (Charles River male albino); conditions: Mus musculus, po, 25 min, intragastric, PBQ i.p. 25 minutes later, writhes <= one-half the median of saline control; for responders at 30 mg/kg: 30 mg per kilogram, read-out: WRITHING ASSAY Number Out of Nine or Ten (mice in which test compound produced analgesia) (converted); for responders at 10 mg/kg: 10 mg per kilogram, read-out: WRITHING ASSAY Number Out of Nine or Ten (mice in which test compound produced analgesia)
From the text: The Writhing Assay is one of the most widely-used experimental procedures for measuring the analgesic activity of different narcotic and nonnarcotic analgesic agents, and involves the continuous, chemically-induced pain of visceral origin to an animal, such as a mouse or rat. Gyires et al., Arch. int. […] Vander Wende et al., Fed. […] Chemicals which may be used to induce this pain include phenylbenzoquinone (PBQ) and acetic acid. As a result of the chemical irritation to the animal, a characteristic stretching and writhing of the animal (dorsiflexion of the animal's back, extension of its hindlimbs and the strong contraction of its abdominal musculature) will generally occur. […] Drugs which reduce the number of writhes of the animal appear to restore the normal nociceptive threshold of the animal.
Charles River male albino mice, weighing 20 to 30 grams were used in this assay.
Ten mice which were given saline in place of a test compound of the invention were used as a control group.
Five minutes later, each mouse was individually placed into a glass beaker for observation, and the number of writhes occurring during the following ten-minute period was counted.

[2] = test system: isolated smooth muscle preparations; conditions: cited from earlier work

SMILES | PGE ANTAGONISM IN GUINEA PIG ILEUM Dose Ratio (DR) [1] | responders at 30 mg/kg (mice) [%] | responders at 10 mg/kg (mice) [%] | inhibition of the stimulant actions of prostaglandins on isolated smooth muscle preparations [2]
O=S(=O)(c1ccc(CCc2ccncc2)cc1)N1Cc2ccccc2Oc2ccc(Cl)cc21 [Example 3, 8-chloro-10,11-dihydro-10-4-2-(4-pyridinyl)ethyl!phenyl!sulfonyl!dibenzb,f! 1,4!oxazepine, monohydrochloride] | 1.0 | 50 | – | –
O=C(NCc1ccncc1)c1ccc(S(=O)(=O)N2Cc3ccccc3Oc3ccc(Cl)cc32)cc1 [Example 4, 4-(8-chlorodibenzb,f! 1,4!oxazepin-10(11H)yl)sulfonyl!-N-(4-pyridinylmethyl)benzamide, monohydrochloride] | – | 60 | – | –
O=C(NCc1cccnc1)c1ccc(S(=O)(=O)N2Cc3ccccc3Oc3ccc(Cl)cc32)cc1 [Example 5, 4-(8-chlorodibenzb,f! 1,4!oxazepin-10(11H)yl) sulfonyl!-N-(3-pyridinylmethyl)benzamide, monohydrochloride] | 4.4 | 30 | – | –
O=C(c1ccc(/C=C\c2ccncc2)cc1)N1Cc2ccccc2Oc2ccc(Cl)cc21 [Example 8, Compound E, 8-chloro-10,11-dihydro-10-4-2Z-(4-pyridinyl)ethenyl!benzoyl!dibenz b,f! 1 ,4!oxazepine, hydrochloride] | 4.8 | – | 90 | –
O=C(c1ccc(CCc2ccncc2)cc1)N1Cc2ccccc2Oc2ccc(Cl)cc21 [Example 8, Compound F, 8-chloro-10,11-dihydro-10-4-2-(4-pyridinyl)ethyl!benzoyl!dibenz b,f! 1,4! oxazepine, hydrochloride] | 1.1 | – | 90 | –
O=C(NCc1ccncc1)c1ccc(C(=O)N2Cc3ccccc3Oc3ccc(Cl)cc32)cc1 [Example 9, 4-(8-chlorodibenzb,f! 1,4!oxazepin-10(11H)-yl)carbonyl!-N-(4-pyridinylmethyl)benzamide, hydrochloride] | 2.29 | – | 80 | –
O=C(NCc1cccnc1)c1ccc(C(=O)N2Cc3ccccc3Oc3ccc(Cl)cc32)cc1 [Example 10, 4-(8-chlorodibenzb,f! 1,4!oxazepin-10(11H)yl)carbonyl!-N-f3,pyridinylmethyl)benzamide, hydrochloride] | 3.2 | 40 | – | –
O=C(NCc1ccncc1)c1ccccc1C(=O)N1Cc2ccccc2Oc2ccc(Cl)cc21 [Example 12, 2-(8-chlorodibenzb,f! 1,4!oxazepin-10(11H)yl)carbonyl!-N-(4-pyridinylmethyl)benzamide, hydrochloride] | 4.23 | 33.3 | – | –
O=C(NCc1cccnc1)c1ccccc1C(=O)N1Cc2ccccc2Oc2ccc(Cl)cc21 [Example 13, 2-(8-chlorodibenzb,f! 1,4!oxazepin-10 f 11H)yl)carbonyl!-N-(3-pyridinylmethyl)benzamide, hydrochloride] | 1.10 | 50 | – | –
O=C(NCc1ccccn1)c1ccccc1C(=O)N1Cc2ccccc2Oc2ccc(Cl)cc21 [Example 14, 2-(8-chlorodibenzb,f! 1,4!oxazepin-10(11H)-yl) carbonyl!-N-(2-pyridinylmethyl!benzamide, dihydrochloride] | 4.07 | 30 | – | –
O=C(NCc1ccncc1)c1cccc(C(=O)N2Cc3ccccc3Oc3ccc(Cl)cc32)c1 [Example 16, 3-f 8-chlorodibenz b,f! 1,4!oxazepin-10(11H)yl)carbonyl!-N-(4-pyridinylmethyl)benzamide, monohydrochloride] | 4.67 | 80 | – | –
O=C(NCc1cccnc1)c1cccc(C(=O)N2Cc3ccccc3Oc3ccc(Cl)cc32)c1 [Example 17, 3-(8-chlorodibenzb,f! 1,4!oxazepin-10(11H!yl!carbonyl!-N-(3-pyridinylmethyl)benzamide, monohydrochloride] | 66.0 | 50 | – | –
O=C(NCc1ccccn1)c1cccc(C(=O)N2Cc3ccccc3Oc3ccc(Cl)cc32)c1 [Example 18, 3-(8-chlorodibenzb,f! 1,4!oxazepin-10(11H)yl)carbonyl!-N-(2-pyridinylmethyl!benzamide, hydrochloride] | 114 | 70 | – | –
O=C(NCc1ccncc1)c1ccc(CN2Cc3ccccc3Oc3ccc(Cl)cc32)cc1 [Example 27, 4-(8-chlorodibenzb,f! 1,4!oxazepin-10(11H)yl)methyl!-N-(4-pyridinylmethyl)benzamide, hydrochloride] | 22.7 | 50 | – | –
O=C(NCc1cccnc1)c1ccc(CN2Cc3ccccc3Oc3ccc(Cl)cc32)cc1 [Example 28, 4-(8-chlorodibenzb,f! 1,4!oxazepin-10(11H)yl)methyl!-N-(3-pyridinylmethyl)benzamide, hydrochloride] | 3.59 | 60 | – | –
O=C(NCc1ccccn1)c1ccc(CN2Cc3ccccc3Oc3ccc(Cl)cc32)cc1 [Example 29, 4-(8-chlorodibenz E b,f! 1,4!oxazepin-10(11H)yl)methyl!-N-(2-pyridinylmethyl)benzamide, hydrochloride] | 10.4 | 50 | – | –
O=C(NCc1ccncc1)c1cccc(C(=O)N2Cc3ccccc3Oc3ccc(Cl)cc32)n1 [Example 30, 6-(8-chlorodibenzb,f! 1,4!oxazepin-10(11H)yl)carbonyl!-N-(4-pyridinylmethyl)-2-pyridinecarboxamide, hydrochloride] | 0.81 | 70 | – | –
O=C(NCc1cccnc1)c1cccc(C(=O)N2Cc3ccccc3Oc3ccc(Cl)cc32)n1 [Example 31, 6-(8-chlorodibenzb,f! 1,4!oxazepin-10(11H)yl)carbonyl!-N-(3-pyridinylmethyl)-2-pyridinecarboxamide, hydrochloride] | 1.70 | 60 | – | –
O=C(NCc1ccccn1)c1cccc(C(=O)N2Cc3ccccc3Oc3ccc(Cl)cc32)n1 [Example 32, 6-(8-chlorodibenzb,f! 1,4!oxazepin-10(11H)yl)carbonyl!-N,(2-pyridinylmethyl)-2-pyridinecarboxamide, hydrochloride] | 0.63 | 30 | – | –
O=C(NCc1ccncc1)c1ccc(CN2Cc3ccccc3Oc3ccc(Cl)cc32)cn1 [Example 34, 5-(8-chlorodibenzb,f! 1,4!oxazepin-10(11H)yl)methyl!-N-(4-pyridinylmethyl)-2-pyridinecarboxamide, monohydrochloride] | 1.16 | 20 | – | –
O=C(NCc1cccnc1)c1ccc(CN2Cc3ccccc3Oc3ccc(Cl)cc32)cn1 [Example 35, 5-(8-chlorodibenzb,f! 1,4!oxazepin-10(11H)yl)methyl!-N-(3-pyridinylmethyl)-2-pyridinecarboxamide, monohydrochloride] | – | 70 | – | –
O=C(NCc1ccccn1)c1ccc(CN2Cc3ccccc3Oc3ccc(Cl)cc32)cn1 [Example 36, 5-(8-chlorodibenzb,f! 1,4!oxazepin-10(11H)yl)methyl!-N-(2-pyridinylmethyl!-2-pyridinecarboxamide, monohydrochloride] | 2.6 | 77.8 | – | –
O=C(Cc1ccccc1)NNC(=O)N1Cc2ccccc2Oc2ccc(Cl)cc21 [SC-18637] | – | – | – | inhibit the stimulant actions of prostaglandins
CC(=O)NNC(=O)N1Cc2ccccc2Oc2ccc(Cl)cc21 [SC-19220] | – | – | – | inhibit the stimulant actions of prostaglandins
